Where two headings read alike, the source gives them in different places. Bounds are passed on as bounds.

Here are results for 14 compounds from patent US4385057A, “Diphenylbutyl-piperazinecarboxamides in pharmaceutical compositions and methods” (priority 1978, dated 1983).

Test [1] relates to mouse-killing behaviour of rats. Put plainly: Spontaneous mouse-killing (muricide) by rats. In kind it is in vivo, rat (male hooded Long-Evans). Conditions: Rattus norvegicus, sc. An excerpt:
For the purpose of detecting new psychotropic substances with antiaggressive properties, pharmacologist have used several different models. […] This form of aggressive behaviour which is considered to be of predatory nature, is physiologically and topographically different from other forms of aggression (M. O'Boyle, Psychol. Bull. 81, 261 (1974)). Mousekilling is a spontaneous behaviour in some rat strains e.g. male hooded Long-Evans rats. Male hooded Long-Evans rats placed in individual cages were used. By testing a number of rats, a colony of rats was obtained that killed a mouse whenever introduced into the rats' cage, by biting the mouse through the cervical spinal cord. Each rat was tested for mouse-killing behaviour (killing a mouse within 5 minutes) prior to each experiment, thus serving as its own positive control. For each dose level 6 positive rats were selected and the test substance was administered by subcutaneous injection. Doses were selected to form a dose-response curve and the mean effective dose (ED50, mg/kg) was calculated by means of linear regression. The rats were tested at 1, and 2 hours after being injected subcutaneously.

Test [2] has as its system isolation-induced aggressive behaviour of male mice. Put plainly: Isolation-induced aggressive behaviour. Conditions: Mus musculus, sc, read-out: ED50, mg/kg, sc (dose inhibiting aggressive behaviour among 50 percent of the pairs). In kind it is in vivo, mouse (male NMR mice). The text has this:
Male mice subjected to prolonged isolation develop aggressive behavior against each other when paired. […] The clinical correlation of this test indicates tranquillizing and anxiolytic activities as well as antiaggressive properties as such (R. L. Duncan et al., J. Med. Chem. 13, 1 (1970)).
This type of aggression is interesting because it is known that this kind of emotional behaviour might be located in limbic structures in the brain (P. D. Mac Lean, Psychosom. Med. 11, 338 (1949)).
Every week 24 male NMR mice, weighing 20-22 g, were isolated in Makrolon cages for three weeks with diet and water ad libitum. A piece of cardboard was placed between the cages to prevent visual contact.
To test aggressiveness the mice were paired in a neutral area, a beaker (14 cm high and diameter 14 cm). A pair is considered aggressive if both the animals show clear signs of fighting within 5 min. This fighting is characterized by biting and vocalization. As soon as fighting is seen, the mice are separated and brought to their home cage. […] Animals showing no aggression are discarded. […] The test substance is administered s.c. (0.2-0.4 ml/20 g). The mice are paired 1/2 h, 1 h, 2 h, 4 h, 6 h and 24 h after the injection for trials of 5 min. duration.
The ED50 -value (mg/kg) reported is the dose inhibiting aggressive behaviour among 50 percent of the pairs 1.0 hour after drug administration.

Test [3] relates to acetic acid induced writhing. Put plainly: Writhing test (analgetic properties). It counts as in vivo, mouse (NMRI female). Conditions: Mus musculus, sc, 20 min before acetic acid i.p.; read-out: ED50, mg/kg, s.c. (dose blocking the writhing behaviour in 50% of the animals). The procedure:
The writhing test is a frequently used test of analgetic properties (L. B. Witkin et al., J. Pharmacol. Exp. Ther. 133, 400 (1961)). If acetic acid (0.5%, 15 ml/kg) is injected intraperitoneally in mice (NMRI) they will without exception develop a writhing behaviour characterized by stretching their hind legs. The drugs to be tested were administered subcutaneously to 6 female mice at each dose 20 min. before the injection of the acetic acid. After 10 min. the behaviour of the mice was studied in 5 min. The ED50 value is the dose blocking the writhing behaviour in 50% of the animals during the 5 min. study period. [drawing 13]
In general terms: An intraperitoneal irritant provokes the stretching counted in writhing tests.

The subject of test [4] is exploratory activity / climbing of mice. Kind of test: Climbing (inability to ascend net-ladder). It counts as in vivo, mouse (NMRI female). Conditions: Mus musculus, sc, read-out: ED50, mg/kg, s.c. (dose rendering 50% of the mice incapable of entering the top of the net-ladder). The procedure: When mice are placed in a new area, they explore the whole available territory. Minor and major tranquillizers inhibit the exploratory activity. The sedative effect of drugs is evaluated by the inability of mice to ascend a netladder. The process of climbing is very complex and consists of psychical and taxic (motor performance) components. For the experiments a transparent cage (36×27×23 cm) and a net-ladder (35×6 cm) standing with an inclination of 45° was used. (P. Kneip. Arch. Int. Pharmacodyn. 76, 238 (1960); F. Sandberg, Arzneimittelforsch. 4, 203 (1959)).
The test compound is administered s.c. (10 ml/kg) to 6 NMRI female mice per dose. The mice are marked with a number code from 1 to 6, in order to recognize each individual mouse. In 25 minutes, 55 minutes, 1 h 55 minutes and 3 h 55 minutes time after the administration the mice are placed in the above-mentioned cage for 10 minutes. The number of mice ascending the top of the net-ladder is noted. Other behavioural items are also noted. The ED50 (mg/kg) reported is the dose rendering 50% of the mice incapable of entering the top of the net-ladder 0.5 h after the administration.

The subject of another test is pigs. Kind of test: Social parameters and aggression of pigs in stress situations. In kind it is in vivo, pig. Conditions: in words; for stabilization of social parameters: aggression, hierarchy, interaction, cleanliness, feeding behaviour; for effect on aggression: stress situations. The text has this: Among domestic animals pigs are exposed to a wide variety of stresses, e.g. after weaning, at transports and at regrouping of animals. By studying social parameters such as aggression, hierarchy, interaction, cleanliness in their living space and feeding behaviour in different stress situations the new compounds of formula I have been compared with established drugs, e.g. azaperone and acepromazine, now used in handling pigs.

Test [5] deals with guinea pig papillary muscle. Conditions: cited from earlier work.
In a further test the test system is central 5HT receptors. Conditions: established antidepressant drugs; in words; cited from earlier work.
The next test relates to thymus. Kind of test: Swim-test (stress-induced thymolymphatic involution). In kind it is in vivo, mouse (NMRI female). Conditions: for protecting capacity against the induced stress: in words; for Relative weight of thymus, ×100: once 10 min before first swim-test, saline stressed 36, unstressed 66, Wilcoxon's ranking test. The text has this:
If an animal is in a stage of exhaustion the rise in glucocorticoids induced by the stress causes thymolymphatic involution and elicites a characteristic change in blood count. […] In the experiments NMRI female mice were used with well-documented thymic glands. In the experiments the mice were divided in four groups. In the first group the mice were allowed to stay in their home cages all the time. In the second group saline-treated mice were repeatedly forced to swim in water at a temperature of +5° C. for 1 min. once every hour, 6 times per day for four days. In the third group the mice were pre-treated once with the test compound 10 min. before the first swim-test, otherwise the mice were manipulated in the same way as in the second group. In the fourth group the mice were adrenalectomized three days before the start of the swim tests. Otherwise also this group was manipulated as the second group. All mice were killed on the 5th day of the experiment and the weight of the thymic gland registered.

In the next test the test system is gastric ulcers in rats. Put plainly: Stress-induced ulcers (restraint and cold). It counts as in vivo, rat (female Sprague Dawley). Conditions: 15 min before cold and restraint. The text has this:
A number of methods have been described for studies of somatic expression of adverse stimulation in experimental animals. One method is based upon the development of gastric lesions in rat subjected to some form of environmental stress. The most frequently used mode of stressing the rats is by simple physical restraint. In the experiments to be described rats were immobilized in rigid plastic devices. As repeatedly shown the restraint and the exposure to cold, act synergistically to produce gastric ulcers. The method for production of stress ulcus in rats has been described earlier (R. J. Levine In: C. J. Pfeiffer ed., Peptic Ulcer, Scand. Univ. Books, Copenhagen 1971). The animals in the experiments, female Sprague Dawley rats 180-230 g, have been kept immobilized for three hours at +5° C. For 24 hours prior to restraint the animals furthermore were not allowed to ingest anything but tap water. In all experiments the rats were divided in three groups. In the first group all animals were pre-treated only with saline 15 min. before the exposure to the stressors. […] The third group consisted always of the compound to be tested in this model. The number and severity of gastric erosions in the opened stomach of controls and drug-pre-treated animals were scored. The average number of gastric ulcers in the control rats were put equal to a hundred percent. In table VI the potency of some compounds to protect against gastric ulcers in the described experiments is reported. All pre-treatments were always made 15 min. before the exposure to cold and restraint.

Setting [6] is: read-out: ED50, mg/kg, s.c., 2 hrs after injection.
[7] abbreviates: 1 hr after injection, read-out: ED50, mg/kg, s.c., 1 hr.
Setting [8] is: 1.0 hour after drug administration.

Consider `CNC(=O)N1C[C@H](C)N(CCCC(c2ccc(F)cc2)c2ccc(F)cc2)C[C@H]1C` (relative stereo) [III, trans-2,5-Dimethyl-N'-methyl-4-[4,4-(di-p-fluorophenyl)butyl]-1-piperazinecarboxamide], for which the ED50 was 2.9 mg/kg in [1] (setting [6]); 1.9 mg/kg in test [1] (setting [7]); 2.6 mg/kg in [2] (setting [8]); 1 mg/kg in [3]; 1 mg/kg in test [4] (0.5 h after administration).

For `CC(=O)c1ccc2c(c1)N(CCCN(C)C)c1ccccc1S2` [Acepromazine], in the test on pigs, the “stabilization of social parameters” value was “did not improve any social parameter” and the effect on aggression entry is on record as “blocked aggression by an unspecific mechanism of sedation”.

Turning to `CCCCc1oc2ccccc2c1C(=O)c1cc(I)c(OCCN(CC)CC)c(I)c1` [Amiodarone], the “change of the effective refractory period” value (“change” for short) in [5] (10^-5 M) was 35 ms.

With `CN(C)CCC=C1c2ccccc2CCc2ccccc21` [Amitriptyline, reference compound], the results for the ED50 in [1] (setting [6]), in test [1] (setting [7]) and in test [2] (setting [8]) were 6.4 mg/kg, over 10 mg/kg and 5 mg/kg, respectively. For the same compound, in the test with central 5HT receptors, the “blockade of central 5HT receptors” value is “potent blockers”.

`O=C(CCCN1CCN(c2ccccn2)CC1)c1ccc(F)cc1` [Azaperone]: in the test with pigs, the “stabilization of social parameters” value is listed as “did not improve any social parameter” and the effect on aggression result is “blocked aggression by an unspecific mechanism of sedation”. The “protecting capacity against the induced stress” value in the test on thymus was “less effective”. For the same compound, the “Relative weight of thymus, ×100” value with thymus (pre-treatment dose 1.0 mg/kg) stood at 48. Further, the “Inhibition, % (gastric ulcers)” value in the test with gastric ulcers in rats (pre-treatment dose 1.0 mg/kg) is listed as 0%.

For `CN(C)CCCN1c2ccccc2Sc2ccc(Cl)cc21` [Chlorpromazine, reference compound], the ED50 came to 1.4 mg/kg in test [2] (1 h) and 2 mg/kg in [4] (0.5 h).

As to `O=C(CCCN1CCC(O)(c2ccc(Cl)cc2)CC1)c1ccc(F)cc1` [Haloperidol, reference compound], in test [4] (0.5 h), the ED50 came out at 1.3 mg/kg.

On to `CNC(=O)N1CCN(CCCC(c2ccc(F)cc2)c2ccc(F)cc2)CC1` [I, N'-Methyl-4-[4,4-(di-p-fluorophenyl)butyl]-1-piperazinecarboxamide], for which the ED50 came out at 0.7 mg/kg in test [1] (setting [6]); 0.5 mg/kg in [1] (setting [7]); 4.8 mg/kg in [2] (setting [8]); 0.5 mg/kg in test [3]; 1.5 mg/kg in test [4] (0.5 h after administration).

`CNC(=S)N1CCN(CCCC(c2ccc(F)cc2)c2ccc(F)cc2)CC1` [IV, N'-Methyl-4-[4,4-(di-p-fluorophenyl)butyl]-1-piperazinecarbothioamide]: the ED50 in test [1] (setting [6]) worked out at 0.1 mg/kg; in test [1] (setting [7]), 0.1 mg/kg; in test [2] (setting [8]), 2 mg/kg; in [3] it was 1.4 mg/kg; in [4] (0.5 h after administration), 5.1 mg/kg.

Take `CCN(CC)CC(=O)Nc1c(C)cccc1C` [Lidocain]: in test [5] (10^-7 M), the “change” value is recorded as 20 ms.

For `CN1CCN2c3ccccc3Cc3ccccc3C2C1` (stereo not drawn) [Mianserin], in the test on central 5HT receptors, the “blockade of central 5HT receptors” value is listed as “potent blockers”.

As to `CN1CC[C@]23c4c5ccc(O)c4O[C@H]2[C@@H](O)C=C[C@H]3[C@H]1C5` [Morphine], the “Inhibition, % (gastric ulcers)” value in the test with gastric ulcers in rats (pre-treatment dose 2.0 mg/kg) amounted to 67%.

As to `CC(C)NCC(O)COc1cccc2ccccc12` (stereo not drawn) [Propranolol], the “protecting capacity against the induced stress” value in the test on thymus is given as “less effective”. In addition, the “Relative weight of thymus, ×100” value in the test on thymus (pre-treatment dose 10.0 mg/kg) is given as 48.

In the case of `C=C[C@H]1C[N@@]2CC[C@H]1C[C@@H]2[C@@H](O)c1ccnc2ccc(OC)cc12` [Quinidine], the “change” value in [5] (10^-6 M) was 14 ms.
